This is an account of results in patent EP3408309B1 (priority 2016, dated 2017).

Structures are written as SMILES.

For assay [1], the target named is Influenza neuraminidase. The note with it: competitive inhibitors, background statement; cited from earlier work.
The test system of assay [2] is X31. Nature of the assay: Infection inhibition experiment with X31 in BALB/c mice. The class given is in vivo. The note with it: X31 pretreated with inhibitor, intranasal application; loss in body weight over 11 days. As for the experimental part:
Figure 7A and 7B show the results of an infection inhibition experiment with X31 in BALB/c mice. X31 was pretreated with inhibitor at the indicated concentrations, followed by intranasal application of the mixture to sedated mice.
In the experiments, the results of which are depicted in Figure 7A, the infection-related loss in body weight was daily controlled for 11 days. IPGSA 3 at 5 mM and 1 mM sialic acid concentrations was compared to infected/untreated, uninfected/untreated or infected/control treated (linPGOH 1) cases. The effect of a cytokine storm related loss in body weight was controled by using UV inactivated X31, which was not infectious, but still able to hemagglutinate as the untreated virus. Error bars indicate the standard error of the mean (n≥5).
Error bars indicate the standard error of the mean (n≥5).

Assay [3] has as its system fluorescently labeled X31. Nature of the assay: Microscale thermophoresis binding to whole virus particles. Set-up: species or system influenza strain A/Aichi/2/68 H3N2. The note with it: apparent dissociation constant, one site binding fit; read-out: Kdapp Particle. From the text:
The examined IPGSAs show one binding step. Binding constants are described as apparent dissociation constants (Kdapp) derived from a one site binding fit of each binding step. Error bars indicate the standard error of the mean (n≥3).
For orientation: In MST a laser heats a spot of the sample, and binding alters the fluorescence response.

Assay [4] concerns influenza A virus (X-31, H3N2). Nature of the assay: Hemagglutination inhibition (HAI) assay. The format is cell-based.

For `CC(=O)N[C@H]1[C@H]([C@H](O)[C@H](O)CO)OC(C(=O)O)=C[C@@H]1N=C(N)N` [Relenza, Zanamivir], the “IC50 values, enzyme inhibition” value in assay [1] is recorded as “low”.
`CCOC(=O)C1=C[C@@H](OC(CC)CC)[C@H](NC(C)=O)[C@@H](N)C1` [Tamiflu, Oseltamivir]: the “IC50 values, enzyme inhibition” value in assay [1] is on record as “low”. In assay [2], the “infection inhibition in vivo” value is on record as “not able to cause potent infection inhibition”.
On to `CC(=O)N[C@H]1[C@H]([C@H](O)[C@H](O)CO)O[C@@](OC[C@H]2O[C@@H](O[C@H]3[C@H](O)[C@@H](O)C(O)O[C@@H]3CO)[C@H](O)[C@@H](O)[C@H]2O)(C(=O)O)C[C@@H]1O` (stereo partly drawn) [α-2,6-sialyllactose], for which, in assay [3], the Kd worked out at 2.5 mM. The “Enhancement factor (β)” value in assay [4] (inhibition potency compared to monomeric α-2,6-sialyllactose) amounted to 1. For the same compound, the Ki (commonly the equilibrium dissociation constant of an inhibitor or competing ligand from its target) in assay [4] (sialic acid concentration, 4 HAU X31, lowest concentration for 100% inhibition, * = maximum tested concentration, read-out: Ki(HAI) SA) is 48.1 ± 1.41 mM.
